Laboratory results: patent publication US8765669B2, “Glycosylated GLP-1 peptide” (Glytech, Inc., priority 2008, dated 2014)
No end group written: not given here.

molecular target: T1, DPP-IV (dipeptidyl peptidase IV from porcine kidney) (Sus scrofa, UniProt P22411); assay: Test of resistance to dipeptidyl peptidase IV (DPP-IV); type: in vitro ADME; settings: half-life (t1/2) in DPP-IV solution at 37° C., GLP-1 of Comparative Example 1 defined as standard (=1)
T1 construct: dipeptidyl peptidase IV from porcine kidney, product of SIGMA; purchased SIGMA; host or cells: porcine kidney (tissue-derived enzyme)
T1 sequence (P22411 whole entry): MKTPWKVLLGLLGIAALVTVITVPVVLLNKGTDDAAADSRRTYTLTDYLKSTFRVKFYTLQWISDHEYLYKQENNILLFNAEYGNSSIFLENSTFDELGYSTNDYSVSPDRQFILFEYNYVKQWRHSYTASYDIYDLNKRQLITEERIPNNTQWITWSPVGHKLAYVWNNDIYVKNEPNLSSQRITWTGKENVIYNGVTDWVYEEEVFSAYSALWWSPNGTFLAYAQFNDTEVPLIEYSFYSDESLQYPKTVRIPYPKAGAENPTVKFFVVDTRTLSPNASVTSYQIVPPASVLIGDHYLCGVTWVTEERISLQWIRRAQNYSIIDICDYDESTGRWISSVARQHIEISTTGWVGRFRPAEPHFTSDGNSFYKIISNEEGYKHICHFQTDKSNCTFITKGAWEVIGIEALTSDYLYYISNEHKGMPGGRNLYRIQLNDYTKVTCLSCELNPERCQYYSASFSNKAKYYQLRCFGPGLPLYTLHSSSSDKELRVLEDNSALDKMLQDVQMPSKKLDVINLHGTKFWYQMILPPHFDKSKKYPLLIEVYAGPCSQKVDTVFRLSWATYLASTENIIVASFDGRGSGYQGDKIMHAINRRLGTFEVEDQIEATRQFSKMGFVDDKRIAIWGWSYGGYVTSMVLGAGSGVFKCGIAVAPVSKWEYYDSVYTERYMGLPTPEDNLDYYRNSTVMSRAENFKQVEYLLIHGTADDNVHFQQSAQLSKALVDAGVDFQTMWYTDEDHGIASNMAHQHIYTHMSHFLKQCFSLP
Protocol: Each solution mixture was adjusted with 100 mM sodium phosphate buffer to 100 μl in total and allowed to react at 37° C. A 10 μaliquot of the reaction solution was mixed with 15 μl of 10% trifluoroacetic acid prepared in advance in another Eppendorf tube.

Compound	Relative Resistance
CC[C@H](C)[C@H](NC(=O)[C@H](Cc1ccccc1)NC(=O)[C@H](CCC(=O)O)NC(=O)[C@H](CCCCN)NC(=O)[C@H](C)NC(=O)[C@H](C)NC(=O)[C@H](CCC(N)=O)NC(=O)CNC(=O)[C@H](CCC(=O)O)NC(=O)[C@H](CC(C)C)NC(=O)[C@H](Cc1ccc(O)cc1)NC(=O)[C@H](CO)NC(=O)[C@H](CO)NC(=O)[C@@H](NC(=O)[C@H](CC(=O)O)NC(=O)[C@H](CO)NC(=O)[C@@H](NC(=O)[C@H](Cc1ccccc1)NC(=O)[C@@H](NC(=O)CNC(=O)[C@H](CCC(=O)O)NC(=O)[C@H](C)NC(=O)[C@@H](N)Cc1c[nH]cn1)[C@@H](C)O)[C@@H](C)O)C(C)C)C(=O)N[C@@H](C)C(=O)N[C@@H](Cc1c[nH]c2ccccc12)C(=O)N[C@@H](CC(C)C)C(=O)N[C@H](C(=O)N[C@@H](CCCCN)C(=O)NCC(=O)N[C@@H](CSCC(=O)N[C@@H]1O[C@H](CO)[C@@H](O)[C@H](O[C@@H]2O[C@H](C(=O)O)[C@@H](O[C@@H]3O[C@H](CO)[C@@H](O)[C@H](O[C@@H]4O[C@H](C(=O)O)[C@@H](O)[C@H](O)[C@H]4O)[C@H]3NC(C)=O)[C@H](O)[C@H]2O)[C@H]1NC(C)=O)C(=O)NCC(=O)O)C(C)C [Example 8, 36Cys-hyaluronic acid tetrasaccharide (HA-4) Added GLP-1 Peptide]	2.2
CC[C@H](C)[C@H](NC(=O)[C@H](Cc1ccccc1)NC(=O)[C@H](CCC(=O)O)NC(=O)[C@H](CCCCN)NC(=O)[C@H](C)NC(=O)[C@H](C)NC(=O)[C@H](CCC(N)=O)NC(=O)CNC(=O)[C@H](CCC(=O)O)NC(=O)[C@H](CC(C)C)NC(=O)[C@H](Cc1ccc(O)cc1)NC(=O)[C@H](CO)NC(=O)[C@H](CO)NC(=O)[C@@H](NC(=O)[C@H](CC(=O)O)NC(=O)[C@H](CO)NC(=O)[C@@H](NC(=O)[C@H](Cc1ccccc1)NC(=O)[C@@H](NC(=O)CNC(=O)[C@H](CCC(=O)O)NC(=O)[C@H](C)NC(=O)[C@@H](N)Cc1c[nH]cn1)[C@@H](C)O)[C@@H](C)O)C(C)C)C(=O)N[C@@H](CSCC(=O)N[C@@H]1O[C@H](CO)[C@@H](O)[C@H](O[C@@H]2O[C@H](C(=O)O)[C@@H](O[C@@H]3O[C@H](CO)[C@@H](O)[C@H](O[C@@H]4O[C@H](C(=O)O)[C@@H](O[C@@H]5O[C@H](CO)[C@@H](O)[C@H](O[C@@H]6O[C@H](C(=O)O)[C@@H](O[C@@H]7O[C@H](CO)[C@@H](O)[C@H](O[C@@H]8O[C@H](C(=O)O)[C@@H](O[C@@H]9O[C@H](CO)[C@@H](O)[C@H](O[C@@H]%10O[C@H](C(=O)O)[C@@H](O[C@@H]%11O[C@H](CO)[C@@H](O)[C@H](O[C@@H]%12O[C@H](C(=O)O)[C@@H](O[C@@H]%13O[C@H](CO)[C@@H](O)[C@H](O[C@@H]%14O[C@H](C(=O)O)[C@@H](O[C@@H]%15O[C@H](CO)[C@@H](O)[C@H](O[C@@H]%16O[C@H](C(=O)O)[C@@H](O)[C@H](O)[C@H]%16O)[C@H]%15NC(C)=O)[C@H](O)[C@H]%14O)[C@H]%13NC(C)=O)[C@H](O)[C@H]%12O)[C@H]%11NC(C)=O)[C@H](O)[C@H]%10O)[C@H]9NC(C)=O)[C@H](O)[C@H]8O)[C@H]7NC(C)=O)[C@H](O)[C@H]6O)[C@H]5NC(C)=O)[C@H](O)[C@H]4O)[C@H]3NC(C)=O)[C@H](O)[C@H]2O)[C@H]1NC(C)=O)C(=O)N[C@@H](Cc1c[nH]c2ccccc12)C(=O)N[C@@H](CC(C)C)C(=O)N[C@H](C(=O)N[C@@H](CCCCN)C(=O)NCC(=O)N[C@@H](CCCNC(=N)N)C(=O)NCC(=O)O)C(C)C [Example 10, 30Cys-hyaluronic acid hexadecasaccharide (HA-16) Added GLP-1 Peptide]	3.9
36Cys-hyaluronic acid octasaccharide (HA-8) Added GLP-1 Peptide (HAEGTFTSDVSSYLEGQAAKEFIAWLVKGC(hyaluronic acid octasaccharide)G) [Example 9]	3
CC[C@H](C)[C@H](NC(=O)[C@H](Cc1ccccc1)NC(=O)[C@H](CCC(=O)O)NC(=O)[C@H](CCCCN)NC(=O)[C@H](C)NC(=O)[C@H](C)NC(=O)[C@H](CCC(N)=O)NC(=O)[C@H](CSCC(=O)N[C@@H]1O[C@H](CO)[C@@H](O[C@@H]2O[C@H](CO)[C@@H](O[C@@H]3O[C@H](CO[C@H]4O[C@H](CO)[C@@H](O)[C@H](O)[C@@H]4O[C@@H]4O[C@H](CO)[C@@H](O[C@@H]5O[C@H](CO[C@]6(C(=O)O)C[C@H](O)[C@@H](NC(C)=O)[C@H]([C@H](O)[C@H](O)CO)O6)[C@H](O)[C@H](O)[C@H]5O)[C@H](O)[C@H]4NC(C)=O)[C@@H](O)[C@H](O[C@H]4O[C@H](CO)[C@@H](O)[C@H](O)[C@@H]4O[C@@H]4O[C@H](CO)[C@@H](O[C@@H]5O[C@H](CO[C@]6(C(=O)O)C[C@H](O)[C@@H](NC(C)=O)[C@H]([C@H](O)[C@H](O)CO)O6)[C@H](O)[C@H](O)[C@H]5O)[C@H](O)[C@H]4NC(C)=O)[C@@H]3O)[C@H](O)[C@H]2NC(C)=O)[C@H](O)[C@H]1NC(C)=O)NC(=O)[C@H](CCC(=O)O)NC(=O)[C@H](CC(C)C)NC(=O)[C@H](Cc1ccc(O)cc1)NC(=O)[C@H](CO)NC(=O)[C@H](CO)NC(=O)[C@@H](NC(=O)[C@H](CC(=O)O)NC(=O)[C@H](CO)NC(=O)[C@@H](NC(=O)[C@H](Cc1ccccc1)NC(=O)[C@@H](NC(=O)CNC(=O)[C@H](CCC(=O)O)NC(=O)[C@H](C)NC(=O)[C@@H](N)Cc1c[nH]cn1)[C@@H](C)O)[C@@H](C)O)C(C)C)C(=O)N[C@@H](CSCC(=O)N[C@@H]1O[C@H](CO)[C@@H](O[C@@H]2O[C@H](CO)[C@@H](O[C@@H]3O[C@H](CO[C@H]4O[C@H](CO)[C@@H](O)[C@H](O)[C@@H]4O[C@@H]4O[C@H](CO)[C@@H](O[C@@H]5O[C@H](CO[C@]6(C(=O)O)C[C@H](O)[C@@H](NC(C)=O)[C@H]([C@H](O)[C@H](O)CO)O6)[C@H](O)[C@H](O)[C@H]5O)[C@H](O)[C@H]4NC(C)=O)[C@@H](O)[C@H](O[C@H]4O[C@H](CO)[C@@H](O)[C@H](O)[C@@H]4O[C@@H]4O[C@H](CO)[C@@H](O[C@@H]5O[C@H](CO[C@]6(C(=O)O)C[C@H](O)[C@@H](NC(C)=O)[C@H]([C@H](O)[C@H](O)CO)O6)[C@H](O)[C@H](O)[C@H]5O)[C@H](O)[C@H]4NC(C)=O)[C@@H]3O)[C@H](O)[C@H]2NC(C)=O)[C@H](O)[C@H]1NC(C)=O)C(=O)N[C@@H](Cc1c[nH]c2ccccc12)C(=O)N[C@@H](CC(C)C)C(=O)N[C@H](C(=O)N[C@@H](CCCCN)C(=O)NCC(=O)N[C@@H](CCCNC(=N)N)C(=O)NCC(=O)O)C(C)C [Example 3, 22 and 30Cys-disialo oligosaccharide Chain Added GLP-1]	32.5
CC[C@H](C)[C@H](NC(=O)[C@H](Cc1ccccc1)NC(=O)[C@H](CCC(=O)O)NC(=O)[C@H](CCCCN)NC(=O)[C@H](C)NC(=O)[C@H](C)NC(=O)[C@H](CCC(N)=O)NC(=O)CNC(=O)[C@H](CCC(=O)O)NC(=O)[C@H](CC(C)C)NC(=O)[C@H](Cc1ccc(O)cc1)NC(=O)[C@H](CO)NC(=O)[C@H](CO)NC(=O)[C@@H](NC(=O)[C@H](CC(=O)O)NC(=O)[C@H](CO)NC(=O)[C@@H](NC(=O)[C@H](Cc1ccccc1)NC(=O)[C@@H](NC(=O)CNC(=O)[C@H](CCC(=O)O)NC(=O)[C@H](C)NC(=O)[C@@H](N)Cc1c[nH]cn1)[C@@H](C)O)[C@@H](C)O)C(C)C)C(=O)N[C@@H](C)C(=O)N[C@@H](Cc1c[nH]c2ccccc12)C(=O)N[C@@H](CC(C)C)C(=O)N[C@H](C(=O)N[C@@H](CCCCN)C(=O)NCC(=O)N[C@@H](CSCC(=O)N[C@@H]1O[C@H](CO)[C@@H](O)[C@H](O[C@@H]2O[C@H](C(=O)O)[C@@H](O[C@@H]3O[C@H](CO)[C@@H](O)[C@H](O[C@@H]4O[C@H](C(=O)O)[C@@H](O[C@@H]5O[C@H](CO)[C@@H](O)[C@H](O[C@@H]6O[C@H](C(=O)O)[C@@H](O[C@@H]7O[C@H](CO)[C@@H](O)[C@H](O[C@@H]8O[C@H](C(=O)O)[C@@H](O[C@@H]9O[C@H](CO)[C@@H](O)[C@H](O[C@@H]%10O[C@H](C(=O)O)[C@@H](O[C@@H]%11O[C@H](CO)[C@@H](O)[C@H](O[C@@H]%12O[C@H](C(=O)O)[C@@H](O[C@@H]%13O[C@H](CO)[C@@H](O)[C@H](O[C@@H]%14O[C@H](C(=O)O)[C@@H](O[C@@H]%15O[C@H](CO)[C@@H](O)[C@H](O[C@@H]%16O[C@H](C(=O)O)[C@@H](O)[C@H](O)[C@H]%16O)[C@H]%15NC(C)=O)[C@H](O)[C@H]%14O)[C@H]%13NC(C)=O)[C@H](O)[C@H]%12O)[C@H]%11NC(C)=O)[C@H](O)[C@H]%10O)[C@H]9NC(C)=O)[C@H](O)[C@H]8O)[C@H]7NC(C)=O)[C@H](O)[C@H]6O)[C@H]5NC(C)=O)[C@H](O)[C@H]4O)[C@H]3NC(C)=O)[C@H](O)[C@H]2O)[C@H]1NC(C)=O)C(=O)NCC(=O)O)C(C)C [Example 11, 36Cys-hyaluronic acid hexadecasaccharide (HA-16) Added GLP-1 Peptide]	3
CC[C@H](C)[C@H](NC(=O)[C@H](Cc1ccccc1)NC(=O)[C@H](CCC(=O)O)NC(=O)[C@H](CCCCN)NC(=O)[C@H](C)NC(=O)[C@H](C)NC(=O)[C@H](CCC(N)=O)NC(=O)CNC(=O)[C@H](CCC(=O)O)NC(=O)[C@H](CC(C)C)NC(=O)[C@H](Cc1ccc(O)cc1)NC(=O)[C@H](CO)NC(=O)[C@H](CO)NC(=O)[C@@H](NC(=O)[C@H](CC(=O)O)NC(=O)[C@H](CO)NC(=O)[C@@H](NC(=O)[C@H](Cc1ccccc1)NC(=O)[C@@H](NC(=O)CNC(=O)[C@H](CCC(=O)O)NC(=O)[C@H](C)NC(=O)[C@@H](N)Cc1c[nH]cn1)[C@@H](C)O)[C@@H](C)O)C(C)C)C(=O)N[C@@H](CSCC(=O)N[C@@H]1O[C@H](CO)[C@@H](O)[C@H](O[C@@H]2O[C@H](C(=O)O)[C@@H](O[C@@H]3O[C@H](CO)[C@@H](O)[C@H](O[C@@H]4O[C@H](C(=O)O)[C@@H](O)[C@H](O)[C@H]4O)[C@H]3NC(C)=O)[C@H](O)[C@H]2O)[C@H]1NC(C)=O)C(=O)N[C@@H](Cc1c[nH]c2ccccc12)C(=O)N[C@@H](CC(C)C)C(=O)N[C@H](C(=O)N[C@@H](CCCCN)C(=O)NCC(=O)N[C@@H](CCCNC(=N)N)C(=O)NCC(=O)O)C(C)C [Example 6, 30Cys-hyaluronic acid tetrasaccharide (HA-4) Added GLP-1 Peptide]	2.1
